{
  "source": "patent US20260091209A1",
  "about": "“DRUG DELIVERY DEVICE” (priority 2022, published 2026)",
  "key": {"[1]": {"experiment": "Drug release rate into 50:50 DMSO:water release media, HPLC", "format": "physicochemical", "settings": "for completeness of release after 7 days / course of release (plateau): FOLFIRINOX components from device, FIG. 5; for course of release (plateau): over 7 days", "procedure": "Drug release rate was measured using 50 mL of release media consisting of 50:50 DMSO:water to ensure that all drugs in the composition remained under sink conditions. Each device was suspended above the release media in a 50 mL sealed Duran bottle with only the permeable release zone in contact with the release media. The Duran bottle was subsequently placed in a shaking incubator at 37° C. and 60 RPM. 5 mL samples of release media were removed and replaced with 5 mL of fresh media either every day for 6 days or at day 1, 3, 5 and 7. The samples were analysed for drug concentration using HPLC.\nRelease of the drug oxaliplatin by (i) an exposed sponge and (ii) a device according to the present invention was compared. The sponge was a gelatin sponge exposed to 50 mL of release media consisting of 50:50 DMSO. The sponge had the proportions 5 mm×10 mm×10 mm. […] The implantable device according to the invention contained a sponge within the enclosed space. Drug release was determined according to the methodology outlined above.\nRelease of the drug components of the FOLFIRINOX regimen from a device according to the invention was investigated. […] The implantable device according to the invention contained a sponge within the enclosed space. Drug release was determined according to the methodology outlined above.\nThe release of the drug irinotecan over 6 days through various membranes for use as the permeable release zone was investigated, to show how the device of the invention provides the skilled person with control over the release profile for the drug, by varying properties of the membrane."}, "pancreatic cancer": {"tested_on": "pancreatic cancer", "settings": "cited from earlier work"}, "[2]": {"settings": "1 mm EVA membrane, no pores, 75% infill"}},
  "data": [
    {"smiles": "O=C1[O][Pt]2([NH][C@@H]3CCCC[C@H]3[NH]2)[O]C1=O", "note": "[oxaliplatin]", "values": [
      {"measurement": "completeness of release after 7 days", "setting": "[1]; [2]", "value": "still not complete"},
      {"measurement": "course of release (plateau)", "setting": "[1]; [2]", "value": "began to plateau after three days"},
      {"measurement": "completeness of release at 7 days (168 hours)", "setting": "[1]; device, 1 mm EVA membrane, no pores, 75% infill, sponge inside, FIG. 4", "value": "not complete"},
      {"measurement": "release plateau", "setting": "[1]; device, 1 mm EVA membrane, no pores, 75% infill, after 5 days, FIG. 4", "value": 75, "unit": "%"},
      {"measurement": "time to complete release", "setting": "[1]; exposed gelatin sponge (comparative), FIG. 3", "value": "≤ 7", "unit": "h"}
    ]},
    {"smiles": "Nc1nc2c(c(=O)[nH]1)N(C=O)C(CNc1ccc(C(=O)N[C@@H](CCC(=O)O)C(=O)O)cc1)CN2", "note": "(stereo partly drawn) [leucovorin]", "values": [
      {"measurement": "completeness of release after 7 days", "setting": "[1]; [2]", "value": "still not complete"},
      {"measurement": "course of release (plateau)", "setting": "[1]; [2]", "value": "began to plateau after three days"}
    ]},
    {"smiles": "CCc1c2c(nc3ccc(OC(=O)N4CCC(N5CCCCC5)CC4)cc13)-c1cc3c(c(=O)n1C2)COC(=O)[C@]3(O)CC", "note": "[irinotecan]", "values": [
      {"measurement": "release rate, membrane pore sizes 3 mm, 4 mm and 5 mm", "setting": "[1]; 4 pores each, over 6 days, FIG. 6D", "value": "as pore size increased the rate of release also increased"},
      {"measurement": "completeness of release after 7 days", "setting": "[1]; [2]", "value": "still not complete"},
      {"measurement": "course of release (plateau)", "setting": "[1]; [2]", "value": "began to plateau after three days"},
      {"measurement": "release character across all membranes investigated", "setting": "[1]; device, over 6 days", "value": "useful sustained release"},
      {"measurement": "release rate, membrane thickness 1 mm versus 2 mm", "setting": "[1]; device, over 6 days, FIG. 6A", "value": "released faster through the membrane with a thickness of 1 mm"},
      {"measurement": "release rate, 3D printed membrane infill 50%, 75% and 100%", "setting": "[1]; device, over 6 days, FIG. 6B", "value": "as the percentage infill increased, the release rate slowed"},
      {"measurement": "release rate, membranes with one, two or four pores", "setting": "[1]; pores 3 mm diameter, over 6 days, FIG. 6C", "value": "as the number of pores increased the rate of release also increased"}
    ]},
    {"smiles": "O=c1[nH]cc(F)c(=O)[nH]1", "note": "[fluorouracil]", "values": [
      {"measurement": "completeness of release after 7 days", "setting": "[1]; [2]", "value": "still not complete"},
      {"measurement": "course of release (plateau)", "setting": "[1]; [2]", "value": "began to plateau after three days"}
    ]},
    {"smiles": "Nc1ccn([C@@H]2O[C@H](CO)[C@@H](O)C2(F)F)c(=O)n1", "note": "[gemcitabine]", "values": [
      {"measurement": "median disease-free survival", "setting": "pancreatic cancer; Conroy et al (2018), patients after surgery", "value": 12.8, "unit": "months"},
      {"measurement": "disease-free survival rate at 3 years", "setting": "pancreatic cancer; Conroy et al (2018)", "value": 21.4, "unit": "%"},
      {"measurement": "median overall survival", "setting": "pancreatic cancer; Conroy et al (2018)", "value": 35.0, "unit": "months"},
      {"measurement": "overall survival rate at 3 years", "setting": "pancreatic cancer; Conroy et al (2018)", "value": 48.6, "unit": "%"},
      {"measurement": "adverse events of grade 3 or 4, share of patients", "setting": "pancreatic cancer; Conroy et al.", "value": 52.9, "unit": "%"}
    ]}
  ]
}
